Where a name gives a salt, the structure may show the parent alone. Read-outs that look alike come from different tables or passages of the source.
Assays:
Female CFLP mice [1] = test: Anti-hyperglycaemic activity: subcutaneous glucose load in fasted mice, area under blood glucose curve; type: in vivo; conditions: glucose 1 g/kg sc, 2 hour period, vs water control
Method: Female CFLP mice, each weighing approximately 25 g, were fasted for 24 hours prior to the study. The compounds under study were administered orally as an aqueous solution to each of 6 mice. 6 mice were given water as a control. 30 minutes later a blood sample (20 µl) was obtained from the tail for the analysis of blood glucose. Immediately after taking this blood sample, glucose (1 g/kg body weight) was administered subcutaneously to each mouse. Blood samples were then obtained from each mouse at 30 minute intervals for 120 minutes.
Compounds that produced a significant (P<0.05) reduction of blood glucose, compared with control mice given water, at any time interval, were considered active. The area under the blood glucose curve over the 2 hour period after the administration of the glucose was calculated for each compound and compared with the value for control animals.

Female CFLP mice [2] = test: Effect on energy expenditure and food intake of mice; type: in vivo; conditions: Mus musculus, po, 21 h
Method: Female CFLP mice each weighing approximately 24 g, were given food and water ad lib before and during the experiment. The compounds were dissolved in water by addition of one mole of hydrochloric acid per mole of compound and these solutions were administered orally to each of 12 mice. A further 12 mice were dosed orally with water. The mice were placed in boxes through which air was drawn and the oxygen content of the air leaving the boxes was measured. […] The food intake of the mice was measured over this same period of 21 hours. The results are expressed as a percentage of the mean food intake or rate of energy expenditure of the mice dosed with water.

Rat hearts = test: Cardiac activity: rat hearts perfused by the Langendorff procedure
Method: Rat hearts were perfused by the Langendorff procedure as follows:- • Hearts were dissected free within 30 seconds of death and reverse perfused via the aorta and coronary vessels with Krebs-Ringer bicarbonate solution (pH 7.4, 37°C) gassed with 95% oxygen:5% carbon dioxide at a flow rate between 8-12 cm^3/minute. Responses were observed after injection of drug dissolved in isotonic saline into the perfusion media.
Results are expressed as a percentage of the maximum response due to salbutamol.

genetically obese mice = test: Anti-obesity activity: carcass composition after 28 days of daily dosing; type: in vivo
Method: The compounds were administered by oral gavage in water or carboxymethyl-cellulose suspension to genetically obese mice daily for 28 days. At the end of the time the carcass composition was determined. The results obtained were as follows:-

[3] = system: platelet aggregation in human whole blood; test: Collagen-induced platelet aggregation in human whole blood in vitro; type: cell-based; conditions: Final Concentration in Whole Blood 100 μM; collagen EC50 in presence of compound divided by control EC50
Method: Collagen-induced platelet aggregation in human whole blood in vitro.
Collagen added to stirred citrated blood causes platelet aggregation. As the platelets aggregate, the concentration of single platelets falls. […] Inhibitors of aggregation, such as aspirin and dipyridamole, reduce the response to collagen.
Collagen (Hormon-Chemie, Munich) or 154 mM NaCl (control) was added to each aliquot of blood stirred at 1100 rpm in an aggregometer at 37° after 3 mins pre-incubation with compound or appropriate solvent. Aggregates were fixed by addition of 0.5 vol 4.5% formaldehyde or 0.05 vol phosphate-buffered glutaraldehyde. Single platelets were counted electronically. Responses, expressed as per cent fall in platelet count, were obtained to a range of collagen concentrations. The concentration producing 50% maximal effect (EC50) was estimated from log10 concentration-response curves. Dose-ratios were calculated by dividing the EC50 obtained in the presence of compound under test by the control EC50.

rat ear = test: Anti-inflammatory activity: croton oil induced inflammation of the rat ear; type: in vivo; conditions: 1.35 mg/rat ear, topical in 1% croton oil in tetrahydrofuran, ear weight after 6 hours; active = significant (5% level) reduction
Method: The method used is based on that described by G. Tonelli eta/ (Endocrinology, 77, 625-634, 1965). An inflammation is induced in the rat ear by the application of 50 µl of a 1% solution of croton oil in tetrahydrofuran, test compounds being dissolved in the irritant vehicle. After 6 hours the inflammation is assessed by killing the animals and weighing the ears. Topical anti-inflammatory activity of a compound is generally considered to be shown when a significant (5% level) reduction in ear weight is seen compared to non-drug treated control.

[4] = read-out: Mean Energy Expenditure (%)
[5] = 10 μg added to perfusate, perfused rat heart, read-out: Heart Rate
[6] = 10 μg added to perfusate, perfused rat heart, read-out: Heart Tension
[7] = Rattus norvegicus, read-out: Heart Rate
[8] = Rattus norvegicus, read-out: Heart Tension
[9] = 30 μg added to perfusate, perfused rat heart, read-out: Heart Rate
[10] = 30 μg added to perfusate, perfused rat heart, read-out: Heart Tension

SMILES: CNCCOc1ccc(CC(C)NCC(O)c2cccc(C(F)(F)F)c2)cc1 (stereo not shown) [Example 1, N-[2-(4-(2-Methylaminoethoxy)phenyl)-1-methylethyll-2-hydroxy-2-(3-trifluoromethylphenyl)ethanaminedihydrochloride]
- Reduction in area under Blood glucose curve (%) (Female CFLP mice [1]; 1 μ moles/kg po): 33%
- response vs control in vivo at 26.1 mg/kg (Female CFLP mice [2]; [4]): 129%
- response vs control in vivo at 26.1 mg/kg (Female CFLP mice [2]; read-out: Mean Food Intake (%)): 98%
- Emax at 0.01 mg (Rat hearts; [5]): 0%
- Emax at 0.01 mg (Rat hearts; [6]): 7%

SMILES: CNCCOc1ccc(CC(C)NCC(O)c2cccc(C(F)(F)F)c2)cc1 (stereo not shown) [Example 1a, N-[2-(4-(2-Methylaminoethoxy)phenyl)-1-methylethyll-2-hydroxy-2-(3-trifluoromethylphenyl)ethanaminedihydrochloride]
- response vs control in vivo at 2.61 mg/kg (Female CFLP mice [2]; [4]): 120%
- response vs control in vivo at 2.61 mg/kg (Female CFLP mice [2]; read-out: Mean Food Intake (%)): 94%
- g Lipid/Mouse Treated (genetically obese mice; 13.1 mg/kg p.o. daily for 28 days, Control 19.13): 12.54 g Lipid/Mouse

SMILES: CC(Cc1ccc(OCCN(C)C)cc1)NCC(O)c1cccc(C(F)(F)F)c1.Cl.Cl (stereo not shown) [Example 2, N-[2-(4-(2-Dimethylaminoethoxy)phenyl)-1-methylethyl]-2-hydroxy-2-(3-trifluoromethylphenyl)ethanamine dihydrochloride]
- Reduction in area under Blood glucose curve (%) (Female CFLP mice [1]; 5 μ moles/kg po): 49%
- response vs control in vivo at 26.9 mg/kg (Female CFLP mice [2]; [4]): 127%
- response vs control in vivo at 26.9 mg/kg (Female CFLP mice [2]; read-out: Mean Food Intake (%)): 98%
- Emax at 0.01 mg (Rat hearts; [7]): 0%
- Emax at 0.01 mg (Rat hearts; [8]): 0%

SMILES: CC(Cc1ccc(OCCNS(C)(=O)=O)cc1)NCC(O)c1cccc(C(F)(F)F)c1 (stereo not shown) [Example 3, N-[2-(4-(2-Methylsulphonylaminoethoxy)phenyl)-1-methylethyl]-2-hydroxy-2-(3-trifluoromethylphenyl)ethanamine]
- Reduction in area under Blood glucose curve (%) (Female CFLP mice [1]; 1 μ moles/kg po): 56%
- response vs control in vivo at 25.6 mg/kg (Female CFLP mice [2]; [4]): 125%
- response vs control in vivo at 25.6 mg/kg (Female CFLP mice [2]; read-out: Mean Food Intake (%)): 83%
- Emax at 0.01 mg (Rat hearts; [5]): 38%
- Emax at 0.01 mg (Rat hearts; [6]): 4%

SMILES: Br.Br.CNCCOc1ccc(CC(C)NCC(O)c2ccccc2F)cc1 (stereo not shown) [Example 7, N-[2-(4-(2-Methylaminoethoxy)phenyl)-1-methylethyl]-2-hydroxy-2-(2-fluorophenyl)ethanamine dihydrobromide]
- Reduction in area under Blood glucose curve (%) (Female CFLP mice [1]; 1 μ moles/kg po): 33%
- response vs control in vivo at 28.3 mg/kg (Female CFLP mice [2]; [4]): 125%
- response vs control in vivo at 28.3 mg/kg (Female CFLP mice [2]; read-out: Mean Food Intake (%)): 109%
- Emax at 0.01 mg (Rat hearts; [7]): 73%
- Emax at 0.01 mg (Rat hearts; [8]): 18%

SMILES: Br.Br.CNCCOc1ccc(CC(C)NCC(O)c2cccc(Br)c2)cc1 (stereo not shown) [Example 8, N-[2-(4-(2-Methylaminoethoxy)phenyl)-1-methylethyl]-2-hydroxy-2-(3-bromophenyl)ethanamine dihydrobromide]
- Reduction in area under Blood glucose curve (%) (Female CFLP mice [1]; 1 μ moles/kg po): 51%
- response vs control in vivo at 31.6 mg/kg (Female CFLP mice [2]; [4]): 135%
- response vs control in vivo at 31.6 mg/kg (Female CFLP mice [2]; read-out: Mean Food Intake (%)): 97%
- Emax at 0.01 mg (Rat hearts; [7]): 73%
- Emax at 0.01 mg (Rat hearts; [8]): 20%
- g Lipid/Mouse Treated (genetically obese mice; 15.8 mg/kg p.o. daily for 28 days, Control 19.89): 17.91 g Lipid/Mouse
- Dose-Ratio [3]: 4.8

SMILES: CNCCOc1ccc(CC(C)NCC(O)c2cccc(F)c2)cc1 (stereo not shown) [Example 9, N-[2-(4-(2-Methylaminoethoxy)phenyl-1-methylethyl]-2-hydroxy-2-(3-fluorophenyl)ethanaminedihydrobromide]
- Reduction in area under Blood glucose curve (%) (Female CFLP mice [1]; 1 μ moles/kg po): 39%
- response vs control in vivo at 28.3 mg/kg (Female CFLP mice [2]; [4]): 129%
- response vs control in vivo at 28.3 mg/kg (Female CFLP mice [2]; read-out: Mean Food Intake (%)): 109%
- Emax at 0.01 mg (Rat hearts; [5]): 73%
- Emax at 0.01 mg (Rat hearts; [6]): 53%

SMILES: CNCCOc1ccc(CC(C)NCC(O)c2ccccc2)cc1 (stereo not shown) [Example 10, N-[2-(4-(2-Methylaminoethoxy)phenyl-1-methylethyl]-2-hydroxy-2-phenylethanaminedihydrobromide]
- Reduction in area under Blood glucose curve (%) (Female CFLP mice [1]; 1 μ moles/kg po): 30%
- response vs control in vivo at 27.3 mg/kg (Female CFLP mice [2]; [4]): 118%
- response vs control in vivo at 27.3 mg/kg (Female CFLP mice [2]; read-out: Mean Food Intake (%)): 89%
- Emax at 0.01 mg (Rat hearts; [5]): 14%
- Emax at 0.01 mg (Rat hearts; [6]): 33%

SMILES: CNCCOc1ccc(CC(C)NCC(O)c2cccc(Cl)c2F)cc1.Cl.Cl (stereo not shown) [Example 11, N-[2-(4-(2-Methylaminoethoxy)phenyl)-1-methylethyl]-2-hydroxy-2-(2-fluoro-3-chlorophenyl)ethanamine dihydrochloride]
- Reduction in area under Blood glucose curve (%) (Female CFLP mice [1]; 1 μ moles/kg po): 64%
- response vs control in vivo at 25.3 mg/kg (Female CFLP mice [2]; [4]): 148%
- response vs control in vivo at 25.3 mg/kg (Female CFLP mice [2]; read-out: Mean Food Intake (%)): 79%
- Emax at 0.01 mg (Rat hearts; [7]): 45%
- Emax at 0.01 mg (Rat hearts; [8]): 60%

SMILES: CC(Cc1ccc(OCCN2CCCCC2)cc1)NCC(O)c1cccc(Cl)c1 (stereo not shown) [Example 14, N-[2-(4-(2-(1-Piperidine)ethoxy)phenyl)-1-methylethyl]-2-hydroxy-2-(3-chlorophenyl)ethanamine dihydrochloride]
- Reduction in area under Blood glucose curve (%) (Female CFLP mice [1]; 1 μ moles/kg po): 68%
- response vs control in vivo at 23.9 mg/kg (Female CFLP mice [2]; [4]): 141%
- response vs control in vivo at 23.9 mg/kg (Female CFLP mice [2]; read-out: Mean Food Intake (%)): 111%
- Emax at 0.03 mg (Rat hearts; [9]): 0%
- Emax at 0.03 mg (Rat hearts; [10]): 0%
- g Lipid/Mouse Treated (genetically obese mice; 3.61 mg/kg p.o. daily for 28 days, Control 22.90): 19.83 g Lipid/Mouse

SMILES: CC(Cc1ccc(OCCNCc2ccccc2)cc1)NCC(O)c1cccc(C(F)(F)F)c1 (stereo not shown) [Example 18, N-[2-(4-(2-Benzylaminoethoxy)phenyl)-1-methylethyl]-2-hydroxy-2-(3-trifluoromethylphenyl)ethanamine]
- Reduction in area under Blood glucose curve (%) (Female CFLP mice [1]; 2.5 μ moles/kg po): 50%
- response vs control in vivo at 26.3 mg/kg (Female CFLP mice [2]; [4]): 131%
- response vs control in vivo at 26.3 mg/kg (Female CFLP mice [2]; read-out: Mean Food Intake (%)): 80%
- Emax at 0.03 mg (Rat hearts; [9]): 12%
- Emax at 0.03 mg (Rat hearts; [10]): 7%

SMILES: CCOC(=O)NCCOc1ccc(CC(C)NCC(O)c2cccc(C(F)(F)F)c2)cc1 (stereo not shown) [Example 20, N-[2-(4-(2-Ethoxycarbonylaminoethoxy)phenyl)-1-methylethyl]-2-hydroxy-2-(3-trifluoromethylphenyl)-ethanamine]
- Reduction in area under Blood glucose curve (%) (Female CFLP mice [1]; 2.5 μ moles/kg po): 36%
- response vs control in vivo at 25.3 mg/kg (Female CFLP mice [2]; [4]): 115%
- response vs control in vivo at 25.3 mg/kg (Female CFLP mice [2]; read-out: Mean Food Intake (%)): 86%
- Emax at 0.03 mg (Rat hearts; [9]): 12%
- Emax at 0.03 mg (Rat hearts; [10]): 0%

SMILES: CC(=O)NCCOc1ccc(CC(C)NCC(O)c2cccc(C(F)(F)F)c2)cc1 (stereo not shown) [Example 21, N-[2-(4-(2-Acetylaminoethoxy)phenyl)-1-methylethyl]-2-hydroxy-2-(3-trifluoromethylphenyl)ethanamine]
- Reduction in area under Blood glucose curve (%) (Female CFLP mice [1]; 2.5 μ moles/kg po): 44%
- response vs control in vivo at 23.6 mg/kg (Female CFLP mice [2]; [4]): 119%
- response vs control in vivo at 23.6 mg/kg (Female CFLP mice [2]; read-out: Mean Food Intake (%)): 102%
- Emax at 0.03 mg (Rat hearts; [9]): 22%
- Emax at 0.03 mg (Rat hearts; [10]): 24%

SMILES: CNCCOc1ccc(CC(C)NCC(O)c2cccc(Cl)c2)cc1.Cl.Cl (stereo not shown) [Example 22, N-[2-(4-(2-Methylaminoethoxy)phenyl)-1-methylethyl]-2-hydroxy-2-(3-chlorophenyl)ethanamine dihydrochloride]
- Reduction in area under Blood glucose curve (%) (Female CFLP mice [1]; 1 μ moles/kg po): 43%
- response vs control in vivo at 24.3 mg/kg (Female CFLP mice [2]; [4]): 124%
- response vs control in vivo at 24.3 mg/kg (Female CFLP mice [2]; read-out: Mean Food Intake (%)): 84%
- Emax at 0.03 mg (Rat hearts; [7]): 57%
- Emax at 0.03 mg (Rat hearts; [8]): 22%

SMILES: CNCCOc1ccc(C[C@@H](C)NC[C@H](O)c2cccc(C(F)(F)F)c2)cc1 [Example 24, N-[2-(4-(2-Methylaminoethoxy)phenyl)-1-methylethyl]-2-hydroxy-2-(3-trifluoromethylphenyl)ethanamine dihydrochloride (RR,SS) diastereoisomer]
- Reduction in area under Blood glucose curve (%) (Female CFLP mice [1]; 1 μ moles/kg po): 47%
- response vs control in vivo at 6.6 mg/kg (Female CFLP mice [2]; [4]): 139%
- response vs control in vivo at 6.6 mg/kg (Female CFLP mice [2]; read-out: Mean Food Intake (%)): 102%
- Dose-Ratio [3]: 5.9
- Activity (rat ear): Active
